Test results taken from patent US12268723B2, “Peptidomimetics for the treatment of coronavirus and picorna virus infections” (priority 2019, dated 2025).
Read-outs that look alike come from different tables or passages of the source.

Tests used:
[1] = test system: Enterovirus EV-71 (BrCr strain); assay: Anti-enterovirus activity, EV-71 virus yield reduction (qRT-PCR) in RD cells; type: cell-based; conditions: for EC50 / EC90: 0.1 MOI, 2 days post-treatment; for EC50: read-out: EC50 against Enterovirus EV-71 (BrCr strain); for EC90: read-out: EC90 against Enterovirus EV-71 (BrCr strain); for IC50: given as IC50, read-out: IC50 against Enterovirus EV-71 (BrCr strain); for IC90: given as IC90, read-out: IC90 against Enterovirus EV-71 (BrCr strain)
Experimental: Compounds are tested for cytotoxicity using a MTS (3-(4,5-dimethylthiazol-2-yl)-5-(3-carboxymethoxyphenyl)-2-(4-sulfophenyl)-2H-tetrazolium) method and the CC50 (IC50) values (cytotoxic concentrations of drug required to reduce cell viability by 50%) are determined for each test compound in human rhabdomyosarcoma (RD) cell line. In addition, the maximum non-toxic concentrations (MNTC) are also determined for each compound. To avoid potential drug toxicity that would interfere with viral cytopathic effect (CPE), compounds are evaluated at nontoxic concentrations. The resultant inhibitory effect of each test compound is calculated as a percentage of decrease in EV-71 CPE. Briefly, a monolayer of RD cells is prepared in a 96-well plates. The cells are then infected with 1 MOI of EV-71 (BrCr strain) followed by treatment with a single non-toxic dose of each compound in triplicate. The vehicle control wells are treated with 0.1% DMSO diluted in the working media. The plate is then incubated for 48 h at which time the virus-control wells produced detectable CPE. To determine the probable CPE inhibitory effect of test compounds, an MTS assay is performed and effective compounds are chosen for further studies to identify the potency of the compounds and their concentration-dependent manner. The dose-response antiviral activity of each compound is determined by a virus yield reduction assay method. Briefly, confluent monolayers of RD cells in 96-wells microplate are infected with 0.1 MOI of EV-71 followed by treatment with compounds. Effective compounds are further quantified and confirmed with a virus-yield-reduction assay using an optimized in house qRT-PCR to determine the EV-71 RNA copy number after 2 days post-treatment from collected supernatants. qRT-PCR is performed using the EV-71 specific probe/primer mix and qScript-Tough master mix (Quantibio, USA). Quantitative PCR measurement was performed using StepOnePlus real time PCR system ([…]) according to manufacturer's protocol. The median effective concentration (EC50) and the concentration with 90% of inhibitory effect (EC90) are calculated using GraphPad PRISM for Windows, version 5 (GraphPad Software Inc., San Diego, CA, 2005) as the means±standard deviation (SD) of the mean from triplicate assay from three independent experiments.

[2] = Cytotoxicity (MTS) in RD cells; type: cell-based, human; conditions: human, RD (rhabdomyosarcoma) cells
Experimental: Compounds are tested for cytotoxicity using a MTS (3-(4,5-dimethylthiazol-2-yl)-5-(3-carboxymethoxyphenyl)-2-(4-sulfophenyl)-2H-tetrazolium) method and the CC50 (IC50) values (cytotoxic concentrations of drug required to reduce cell viability by 50%) are determined for each test compound in human rhabdomyosarcoma (RD) cell line. In addition, the maximum non-toxic concentrations (MNTC) are also determined for each compound. To avoid potential drug toxicity that would interfere with viral cytopathic effect (CPE), compounds are evaluated at nontoxic concentrations. The resultant inhibitory effect of each test compound is calculated as a percentage of decrease in EV-71 CPE. Briefly, a monolayer of RD cells is prepared in a 96-well plates. The cells are then infected with 1 MOI of EV-71 (BrCr strain) followed by treatment with a single non-toxic dose of each compound in triplicate. The vehicle control wells are treated with 0.1% DMSO diluted in the working media. […] The dose-response antiviral activity of each compound is determined by a virus yield reduction assay method. Briefly, confluent monolayers of RD cells in 96-wells microplate are infected with 0.1 MOI of EV-71 followed by treatment with compounds. […] Quantitative PCR measurement was performed using StepOnePlus real time PCR system ([…]) according to manufacturer's protocol.

HCoV (OC43) = assay: In vitro assay for HCoV (OC43), virus yield reduction in Huh7 cells; type: cell-based; conditions: Betacoronavirus 1, OC43, Huh-7, 10 μM
Text: In order to determine the potential effect of each selected compound against in vitro replication of SARS-CoV-2 in Vero cells or HCoV (OC43) in Huh7 cells, a confluent cell monolayer in a 96-wells cell culture microplate can be infected at a multiplicity of infection (MOI) of 0.1 and treated with a maximum non-toxic concentration (MNTC) of each compound. To assess the antiviral activity, a virus yield reduction assay using specific qRT-PCR for each virus can be performed.
Dose-Dependent Antiviral Assay. The antiviral effect of each compound selected through the antiviral evaluation assay can be further confirmed by virus yield reduction assay using the optimized qRT-PCR by measuring the RNA copy number for each virus in the supernatant of treated-infected cells. A positive control, such as remdesivir, can be used for each assay.
Statistical analysis. The half-maximal effective concentration (EC50) and the concentration with 90% of inhibitory effect (EC90) can be calculated using GraphPad PRISM for Windows, version 5 (GraphPad Software Inc., San Diego, CA, 2005) or the Chou and Talalay Method.
These methods were used to evaluate certain of the compounds described herein.

SARS-CoV-2 = assay: microbe, parasite or virus in culture; type: cell-based; conditions: Severe acute respiratory syndrome coronavirus 2, Vero cells

Row | SMILES | EC50 ([1]; RD, 48 h) [µM] | EC90 ([1]; RD, 48 h) [µM] | CC50 [2] [µM] | also measured
1 | CC(C)C[C@H](NC(=O)[C@H](Cc1ccc(O)cc1)NC(=O)OCc1ccccc1)C(=O)N[C@H](C=O)C[C@@H]1CCCNC1=O | 0.19 | 0.36 | > 100 | 
2 | CC(C)C[C@H](NC(=O)OCc1ccccc1)C(=O)NC(C=O)C[C@@H]1CCCNC1=O (stereo partly shown) | 0.05 | 0.13 | > 100 | 
3 | COC(=O)C1O[C@@H]1[C@H](C[C@@H]1CCNC1=O)NC(=O)[C@H](CC(C)C)NC(=O)[C@H](Cc1cccc2ccccc12)NC(=O)OCc1ccccc1 (stereo partly shown) | 0.19 | 0.36 | 80.2 | 
4 | CC(C)C[C@H](NC(=O)[C@H](Cc1cccc2ccccc12)NC(=O)OCc1ccccc1)C(=O)N[C@H](C=O)C[C@@H]1CCNC1=O | 0.09 | 0.26 | > 100 | 
5 | CC(C)C[C@H](NC(=O)[C@H](Cc1ccc(F)cc1)NC(=O)c1cnccn1)C(=O)N[C@H](C=O)C[C@@H]1CCNC1=O |  |  | > 100 | IC50 [1]: 0.09 µM; IC90 [1]: 0.57 µM
6 | CC(C)C[C@H](NC(=O)[C@H](Cc1cccc2ccccc12)NC(=O)OCc1ccccc1)C(=O)N[C@@H](CC1CCNC1=O)[C@H]1O[C@@H]1S(C)(=O)=O (stereo partly shown) | 1.44 | 5.02 | > 100 | 
7 | CC(C)C[C@H](NC(=O)[C@H](Cc1cccc2ccccc12)NC(=O)OCCc1ccccc1)C(=O)N[C@H](C=O)C[C@@H]1CCNC1=O | 0.75 | 2.11 | 42.5 | 
8 | CC(C)C[C@H](NC(=O)[C@H](Cc1ccc(O)cc1)NC(=O)OCc1ccccc1)C(=O)N[C@H](C=O)CC1CCNC1=O (stereo partly shown) | 2.3 | 4.8 |  | CC50 ([2]; unit inferred): > 100 µM
9 | CC(C)C[C@H](NC(=O)[C@H](Cc1ccc(F)cc1)NC(=O)c1cnccn1)C(=O)N[C@H](C=O)C[C@@H]1CCCNC1=O | 0.28 | 0.57 | > 100 | 
10 | CC(C)C[C@H](NC(=O)[C@H](Cc1ccc(F)cc1)NC(=O)OCc1ccccc1)C(=O)N[C@H](C=O)C[C@@H]1CCNC1=O | 0.03 | 0.06 | > 100 | 
11 | Cc1cc(C(=O)N[C@@H](CC(C)C)C(=O)N[C@H](C=O)C[C@@H]2CCCNC2=O)no1 | 1.1 | 4 | > 100 | 
12 | CC(C)C[C@H](NC(=O)[C@@H](Cc1cccc2ccccc12)NC(=O)OCc1ccccc1)C(=O)N[C@H](C=O)C[C@@H]1CCCNC1=O |  |  | 32.5 | IC50 [1]: 0.0088 µM; IC90 [1]: 0.03 µM
13 | Cc1cc(C(=O)N[C@@H](Cc2ccc(F)cc2)C(=O)N[C@@H](CC(C)C)C(=O)N[C@H](C=O)C[C@@H]2CCCNC2=O)no1 | 0.0094 | 0.0166 | > 100 | 
14 | CC(C)C[C@H](NC(=O)[C@H](Cc1cccc2ccccc12)NC(=O)c1cnccn1)C(=O)N[C@H](C=O)C[C@@H]1CCNC1=O |  |  | > 100 | IC50 [1]: 0.0172 µM; IC90 [1]: 0.064 µM
15 | CC(C)C[C@H](NC(=O)[C@H](Cc1cccc2ccccc12)NC(=O)c1cnccn1)C(=O)N[C@H](C=O)C[C@@H]1CCCNC1=O | 0.0158 | 0.0475 | > 100 | 
16 | Cc1cc(C(=O)N[C@@H](Cc2cccc3ccccc23)C(=O)N[C@@H](CC(C)C)C(=O)NC(C=O)C[C@@H]2CCCNC2=O)no1 (single isomer, unassigned) |  |  | > 100 | EC50 [1]: 0.0017 µM; EC90 [1]: 0.0075 µM
17 | CC(C)C[C@H](NC(=O)[C@H](Cc1cccc2ccccc12)NC(=O)OCc1ccccc1)C(=O)N[C@H](/C=C(\C#N)C(N)=O)C[C@@H]1CCCNC1=O [Compound 36, Benzyl ((S)-1-(((S)-1-(((S,E)-5-amino-4-cyano-5-oxo-1-((S)-2-oxopiperidin-3-yl)pent-3-en-2-yl)amino)-4-methyl-1-oxopentan-2-yl)amino)-3-(naphthalen-1-yl)-1-oxopropan-2-yl)carbamate] |  |  |  | inhibition at 10 µM (HCoV (OC43)): 99.9%; inhibition at 10 µM (SARS-CoV-2; 10 μM, read-out: SARS-CoV-2 Inhibition at 10 μM (%)): 99.8%
18 | Cc1cc(C(=O)N[C@@H](Cc2cccc3ccccc23)C(=O)N[C@@H](CC(C)C)C(=O)N[C@H](C=O)C[C@@H]2CCCNC2=O)no1 [Compound 91, 5-Methyl-N—((S)-1-(((S)-4-methyl-1-oxo-1-(((S)-1-oxo-3-((S)-2-oxopiperidin-3-yl)propan-2-yl)amino)pentan-2-yl)amino)-3-(naphthalen-1-yl)-1-oxopropan-2-yl)isoxazole-3-carboxamide] |  |  |  | EC50 (SARS-CoV-2; unit inferred, read-out: Activity against SARS-CoV-2 EC50): 0.6 µM; EC90 (SARS-CoV-2; unit inferred, read-out: Activity against SARS-CoV-2 EC90): 2.3 µM
19 | CC(C)C[C@H](NC(=O)[C@H](Cc1cccc2ccccc12)NC(=O)OCc1ccccc1)C(=O)N[C@@H](C[C@@H]1CCCNC1=O)C(=O)C(F)(F)F [drawing 122] | 0.32 | 0.58 | 65 | 
20 | CC(C)C[C@H](NC(=O)[C@H](Cc1cccc2ccccc12)NC(=O)OCc1ccccc1)C(=O)N[C@@H](C[C@@H]1CCCNC1=O)C(O)C(F)(F)F (stereo partly shown) [drawing 125] | 0.31 | 0.58 | 25 | 
21 | CC(C)C[C@H](NC(=O)[C@H](Cc1cccc2ccccc12)NC(=O)OCc1ccccc1)C(=O)N[C@@H](C[C@@H]1CCCNC1=O)C(O)S(=O)(=O)O (stereo partly shown) [drawing 134] |  |  | 95 | IC50 [1]: 0.0118 µM; IC90 [1]: 0.03 µM
22 | CC(C)C[C@H](NC(=O)[C@H](Cc1ccc(F)cc1)NC(=O)OCc1ccccc1)C(=O)N[C@H](C=O)C[C@@H]1CCCNC1=O [drawing 135] |  |  | > 100 | IC50 [1]: 0.0103 µM; IC90 [1]: 0.0291 µM
